Test results reported in ChEMBL document CHEMBL1155026, “Biaryl and heteroaryl derivatives of SCH 58261 as potent and selective adenosine A2A receptor antagonists” (Bioorg Med Chem Lett, 2008).
In brackets after ≈: the same amount, converted by molar mass.

System: Rattus norvegicus
Assay: Inhibition of haloperidol-induced catalepsy in rat at 3 mg/kg, po after 1 hr
Type: functional
Conditions: not given

Row | SMILES | inhibition in vivo at 3 mg/kg
1 | Nc1nc2c(cnn2CCc2ccc3nc(CN4CCOCC4)ccc3c2)c2nc(-c3ccco3)nn12 | 0%
2 | CCc1ccc2cc(CCn3ncc4c3nc(N)n3nc(-c5ccco5)nc43)ccc2n1 | 43%
3 | Nc1nc2c(cnn2CCc2ccc3nc(C(=O)N4CCOCC4)ccc3c2)c2nc(-c3ccco3)nn12 | 23%
4 | CC(c1ccc2cc(CCn3ncc4c3nc(N)n3nc(-c5ccco5)nc43)ccc2n1)N1CCOCC1 (stereo not given) | 28%
5 | Cc1ccc2cc(CCn3ncc4c3nc(N)n3nc(-c5ccco5)nc43)ccc2n1 | 86%

Molecular target: Adenosine receptor A2a (Homo sapiens, UniProt P29274)
Sequence (P29274 whole entry): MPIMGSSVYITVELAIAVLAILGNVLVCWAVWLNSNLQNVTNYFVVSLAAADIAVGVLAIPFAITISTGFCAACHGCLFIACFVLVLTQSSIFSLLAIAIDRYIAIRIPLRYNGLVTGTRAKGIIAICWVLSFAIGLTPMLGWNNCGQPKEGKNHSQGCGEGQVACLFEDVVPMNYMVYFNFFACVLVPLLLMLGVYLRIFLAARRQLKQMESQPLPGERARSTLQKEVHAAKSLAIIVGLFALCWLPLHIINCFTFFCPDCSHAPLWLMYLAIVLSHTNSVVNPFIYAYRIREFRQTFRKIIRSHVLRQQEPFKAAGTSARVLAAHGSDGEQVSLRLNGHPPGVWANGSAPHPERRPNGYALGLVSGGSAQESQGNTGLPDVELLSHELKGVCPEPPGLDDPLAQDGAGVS
Conditions: not given

Row | SMILES | Ki
6 | Nc1nc2c(cnn2CCc2ccc3nc(N4CCOCC4)ccc3c2)c2nc(-c3ccco3)nn12 | 1.8 nM
7 | Nc1nc2c(cnn2CCc2ccc(-c3cnccn3)cc2)c2nc(-c3ccco3)nn12 | 0.9 nM
8 | COCCOC(C)c1ccc2cc(CCn3ncc4c3nc(N)n3nc(-c5ccco5)nc43)ccc2n1 (stereo not given) | 1.5 nM
9 | Nc1nc2c(cnn2CCc2ccc3nc(CN4CCOCC4)ccc3c2)c2nc(-c3ccco3)nn12 | 2.3 nM
10 | Nc1nc2c(cnn2CCc2ccc(-c3ccc(OC(F)(F)F)cc3)cc2)c2nc(-c3ccco3)nn12 | 7.8 nM
11 | COc1ccc(-c2ccc(CCn3ncc4c3nc(N)n3nc(-c5ccco5)nc43)cc2)cn1 | 1.9 nM
12 | CCc1ccc2cc(CCn3ncc4c3nc(N)n3nc(-c5ccco5)nc43)ccc2n1 | 2.7 nM
13 | Nc1nc2c(cnn2CCc2ccc(-c3ccccc3)cc2)c2nc(-c3ccco3)nn12 | 1.1 nM
14 | Nc1nc2c(cnn2CCc2ccc3nc(C(=O)N4CCOCC4)ccc3c2)c2nc(-c3ccco3)nn12 | 1.6 nM
15 | Nc1nc2c(cnn2CCc2ccc(-c3cccnc3)cn2)c2nc(-c3ccco3)nn12 | 11.4 nM
16 | CC(c1ccc2cc(CCn3ncc4c3nc(N)n3nc(-c5ccco5)nc43)ccc2n1)N1CCOCC1 (stereo not given) | 1.3 nM
17 | Cc1ccc(-c2ccc(CCn3ncc4c3nc(N)n3nc(-c5ccco5)nc43)cc2)cn1 | 0.6 nM
18 | Nc1nc2c(cnn2CCc2cccc(-c3cccnc3)c2)c2nc(-c3ccco3)nn12 | 5.5 nM
19 | Nc1nc2c(cnn2CCc2ccc(-c3cccnc3)cc2)c2nc(-c3ccco3)nn12 | 1.5 nM
20 | Cc1ccc2cc(CCn3ncc4c3nc(N)n3nc(-c5ccco5)nc43)ccc2n1 | 2.4 nM
21 | COc1ccc(-c2ccc(CCn3ncc4c3nc(N)n3nc(-c5ccco5)nc43)cc2)cc1 | 0.5 nM

System: Rattus norvegicus
Assay: Inhibition of haloperidol-induced catalepsy in rat at 1 mg/kg, po after 4 hrs
Type: functional
Conditions: not given

Row | SMILES | inhibition in vivo at 1 mg/kg
22 | Nc1nc2c(cnn2CCc2ccc(-c3cccnc3)cc2)c2nc(-c3ccco3)nn12 | 25%
23 | COc1ccc(-c2ccc(CCn3ncc4c3nc(N)n3nc(-c5ccco5)nc43)cc2)cc1 | 5%

System: Rattus norvegicus
Assay: Inhibition of haloperidol-induced catalepsy in rat at 1 or 3 mg/kg, po after 1 hr
Type: functional
Conditions: not given

Row | SMILES | inhibition in vivo at 3 mg/kg
24 | Nc1nc2c(cnn2CCc2ccc(-c3ccc(OC(F)(F)F)cc3)cc2)c2nc(-c3ccco3)nn12 | 20%
25 | Cc1ccc(-c2ccc(CCn3ncc4c3nc(N)n3nc(-c5ccco5)nc43)cc2)cn1 | 60%

System: Rattus norvegicus
Assay: Inhibition of haloperidol-induced catalepsy in rat at 1 or 3 mg/kg, po after 4 hrs
Type: functional
Conditions: not given

Row | SMILES | inhibition in vivo at 3 mg/kg
26 | Nc1nc2c(cnn2CCc2ccc(-c3ccc(OC(F)(F)F)cc3)cc2)c2nc(-c3ccco3)nn12 | 0%
27 | Cc1ccc(-c2ccc(CCn3ncc4c3nc(N)n3nc(-c5ccco5)nc43)cc2)cn1 | 25%

System: not listed separately
Assay: AUC (0 to 6 hrs) in rat at 3 mg/kg, po
Type: ADME, organism-based
Set-up: time < 6 hr, dose 3 mg/kg, route oral
Conditions: plasma

Row | SMILES | AUC(0-t) at 6 h
28 | Nc1nc2c(cnn2CCc2ccc3nc(N4CCOCC4)ccc3c2)c2nc(-c3ccco3)nn12 | 6 ng·h/mL
29 | Nc1nc2c(cnn2CCc2ccc(-c3cnccn3)cc2)c2nc(-c3ccco3)nn12 | 114 ng·h/mL
30 | Nc1nc2c(cnn2CCc2ccc3nc(CN4CCOCC4)ccc3c2)c2nc(-c3ccco3)nn12 | 656 ng·h/mL
31 | Nc1nc2c(cnn2CCc2ccc(-c3ccc(OC(F)(F)F)cc3)cc2)c2nc(-c3ccco3)nn12 | 67 ng·h/mL
32 | CCc1ccc2cc(CCn3ncc4c3nc(N)n3nc(-c5ccco5)nc43)ccc2n1 | 450 ng·h/mL
33 | CC(c1ccc2cc(CCn3ncc4c3nc(N)n3nc(-c5ccco5)nc43)ccc2n1)N1CCOCC1 (stereo not given) | 7490 ng·h/mL
34 | Cc1ccc(-c2ccc(CCn3ncc4c3nc(N)n3nc(-c5ccco5)nc43)cc2)cn1 | 199 ng·h/mL
35 | Nc1nc2c(cnn2CCc2ccc(-c3cccnc3)cc2)c2nc(-c3ccco3)nn12 | 351 ng·h/mL
36 | Cc1ccc2cc(CCn3ncc4c3nc(N)n3nc(-c5ccco5)nc43)ccc2n1 | 1400 ng·h/mL

System: not listed separately
Assay: Kinetic solubility of compound at pH 7.4 by nephelometry
Type: physicochemical
Conditions: buffer

Row | SMILES | solubility kinetic
37 | Nc1nc2c(cnn2CCc2ccc(-c3cnccn3)cc2)c2nc(-c3ccco3)nn12 | < 4 µM
38 | Nc1nc2c(cnn2CCc2ccc(-c3ccc(OC(F)(F)F)cc3)cc2)c2nc(-c3ccco3)nn12 | < 5 µM
39 | COc1ccc(-c2ccc(CCn3ncc4c3nc(N)n3nc(-c5ccco5)nc43)cc2)cn1 | < 5 µM
40 | CCc1ccc2cc(CCn3ncc4c3nc(N)n3nc(-c5ccco5)nc43)ccc2n1 | < 2.5 µM
41 | Nc1nc2c(cnn2CCc2ccc3nc(C(=O)N4CCOCC4)ccc3c2)c2nc(-c3ccco3)nn12 | 100 µM (≈ 51 µg/mL)
42 | CC(c1ccc2cc(CCn3ncc4c3nc(N)n3nc(-c5ccco5)nc43)ccc2n1)N1CCOCC1 (stereo not given) | 100 µM (≈ 51 µg/mL)
43 | Cc1ccc(-c2ccc(CCn3ncc4c3nc(N)n3nc(-c5ccco5)nc43)cc2)cn1 | < 5 µM
44 | Nc1nc2c(cnn2CCc2ccc(-c3cccnc3)cc2)c2nc(-c3ccco3)nn12 | < 4 µM
45 | Cc1ccc2cc(CCn3ncc4c3nc(N)n3nc(-c5ccco5)nc43)ccc2n1 | 6 µM (≈ 2.46 µg/mL)
46 | COc1ccc(-c2ccc(CCn3ncc4c3nc(N)n3nc(-c5ccco5)nc43)cc2)cc1 | < 5 µM

System: Rattus norvegicus
Assay: Inhibition of haloperidol-induced catalepsy in rat at 3 mg/kg, po after 4 hrs
Type: functional
Conditions: not given

Row | SMILES | inhibition in vivo at 3 mg/kg
47 | Nc1nc2c(cnn2CCc2ccc(-c3cnccn3)cc2)c2nc(-c3ccco3)nn12 | 3%
48 | Nc1nc2c(cnn2CCc2ccc3nc(CN4CCOCC4)ccc3c2)c2nc(-c3ccco3)nn12 | 0%
49 | COc1ccc(-c2ccc(CCn3ncc4c3nc(N)n3nc(-c5ccco5)nc43)cc2)cn1 | 0%
50 | CCc1ccc2cc(CCn3ncc4c3nc(N)n3nc(-c5ccco5)nc43)ccc2n1 | 38%
51 | Nc1nc2c(cnn2CCc2ccc3nc(C(=O)N4CCOCC4)ccc3c2)c2nc(-c3ccco3)nn12 | 13%
52 | CC(c1ccc2cc(CCn3ncc4c3nc(N)n3nc(-c5ccco5)nc43)ccc2n1)N1CCOCC1 (stereo not given) | 13%
53 | Cc1ccc2cc(CCn3ncc4c3nc(N)n3nc(-c5ccco5)nc43)ccc2n1 | 38%

System: Rattus norvegicus
Assay: Inhibition of haloperidol-induced catalepsy in rat at 1 mg/kg, po after 1 hr
Type: functional
Conditions: not given

Row | SMILES | inhibition in vivo at 1 mg/kg
54 | Nc1nc2c(cnn2CCc2ccc(-c3cccnc3)cc2)c2nc(-c3ccco3)nn12 | 40%
55 | COc1ccc(-c2ccc(CCn3ncc4c3nc(N)n3nc(-c5ccco5)nc43)cc2)cc1 | 30%
